What all share (format): cell-based
Data set [1] concerns HepG2 cell. In words: Cell binding analysis of chemically optimized aptamers. The settings on record: combi 1 to combi 5, FIG. 16. On the procedure: [The source words this procedure for another cell line and reports this cell line under the same test.] The 12-10 aptamer and 5 aptamer libraries prepared by truncating the 12-10 aptamer at various lengths [12-10 (40-mer), 12-12 (35-mer), 12-11 (29-mer), 12-13 (24-mer), 12-14 (23-mer), 12-15 (18-mer)] were subjected to cell binding analysis. Each aptamer sequence was labeled with Cy5 at the 5′ end thereof according to the method of Example 1-1. Huh 7 cells (ATCC, Rockville, MD, USA) were seeded at a density of 2×10^6/mL in a 100 mm^2 culture plate, and cultured using a DMEM medium (Gibco, Grand Island, NY, USA) containing 10% FBS (Gibco, Grand Island, NY, USA) and 1% antibiotics (penicillin/streptomycin) under conditions of 5% CO2 and 37° C. […] was mixed with 5×SB18 buffer to prepare the aptamer at a concentration of 4 μM, and heated at 95° C. for 5 min, and then cooled at room temperature for 15 min or more. 4 μM of the aptamer was diluted with KRPH buffer (20 mM HEPES, 5 mM KH2PO4, 1 mM MgSO4, 1 mM CaCl2, 136 mM NaCl, 4.7 mM KCl, pH 7.4) at a concentration of 25 nM. The culture medium was removed from the cultured cells, and 4 mL of phosphate-buffered saline (PBS) was added thereto, followed by washing, and then 4 mL of PBS was removed. […] The cells were divided and added to fluorescence-activated cell sorting (FAC) tubes according to the number of samples, followed by centrifugation at 4° C. and 2000 rpm for 4 min. […] Cy5 was measured at […]. […]

In data set [2] the test system is Hep3B. Nature of the data set: Cellular internalization of chemically optimized aptamers (FIG. 17A). The settings on record: combi 1 to combi 5, FIG. 17A.
For data set [3], the system named is Huh 7 cells. In words: Cell binding analysis of Cy5-labeled aptamers (FACS). The settings on record: three vs five gemcitabines bound, method of Example 2-1, FIG. 19. On the procedure: The 12-10 aptamer and 5 aptamer libraries prepared by truncating the 12-10 aptamer at various lengths [12-10 (40-mer), 12-12 (35-mer), 12-11 (29-mer), 12-13 (24-mer), 12-14 (23-mer), 12-15 (18-mer)] were subjected to cell binding analysis. Each aptamer sequence was labeled with Cy5 at the 5′ end thereof according to the method of Example 1-1. Huh 7 cells (ATCC, Rockville, MD, USA) were seeded at a density of 2×10^6/mL in a 100 mm^2 culture plate, and cultured using a DMEM medium (Gibco, Grand Island, NY, USA) containing 10% FBS (Gibco, Grand Island, NY, USA) and 1% antibiotics (penicillin/streptomycin) under conditions of 5% CO2 and 37° C. 5 μM of the aptamer stock was mixed with 5×SB18 buffer to prepare the aptamer at a concentration of 4 μM, and heated at 95° C. for 5 min, and then cooled at room temperature for 15 min or more. 4 μM of the aptamer was diluted with KRPH buffer (20 mM HEPES, 5 mM KH2PO4, 1 mM MgSO4, 1 mM CaCl2, 136 mM NaCl, 4.7 mM KCl, pH 7.4) at a concentration of 25 nM. The culture medium was removed from the cultured cells, and 4 mL of phosphate-buffered saline (PBS) was added thereto, followed by washing, and then 4 mL of PBS was removed. 4 mL of cold PBS or warm PBS was added, and cells were scraped using a scraper, and collected in tubes, followed by pipetting. The cells were divided and added to fluorescence-activated cell sorting (FAC) tubes according to the number of samples, followed by centrifugation at 4° C. and 2000 rpm for 4 min. After removing the supernatant, each 500 μL of 25 nM aptamer and control (31-08 (40-mer) aptamer) were added to […] of KRPH buffer, followed by pipetting. The tube was covered with foil to block the light, followed by incubation at 4° C. for 30 min. After incubation, centrifugation was performed at 4° C. and 2000 rpm for 4 min, and the supernatant was removed. 2 mL of cold 1×PBS was added, washed, centrifuged at 4° C. and 2000 rpm for 4 min, and the supernatant was removed. This process was repeated three times. […] Cy5 was measured at […]. […]

Data set [4] deals with HepG2. Nature of the data set: Cellular internalization of gemcitabine-bound chemically optimized aptamers. The settings on record: analysis in HepG2 and A431 cells, FIGS. 20 to 22. On the procedure: [The source words this procedure for another cell line and reports this cell line under the same test.] 5 aptamer libraries prepared by truncating the 12-10 aptamer at various lengths [12-12 (35-mer), 12-11 (29-mer), 12-13 (24-mer), 12-14 (23-mer), and 12-15 (18-mer)] were subjected to cellular internalization analysis. In detail, a 6-well plate was prepared, and a round cover glass was placed in the 6-well plate. Huh-7 cells were cultured in the 6-well plate according to the method of Example 1-3. 5 μM of the aptamer stock was mixed with 5×SB18 buffer to prepare the aptamer at a concentration of 4 μM, and heated at 95° C. for 5 min, and then cooled at room temperature for 15 min or more. The next day, the medium was removed from the cultured cells, and a serum-free medium was added thereto, and cultured under conditions of 37° C. and 5% CO2 for 1 hr. The serum-free medium was removed, and then the cells were washed with 2 mL of 1×PBS. KRPH buffer was added, and cultured under conditions of 37° C. and 5% CO2 for 1 hr. 4 μM aptamer was diluted to 25 nM, and then cultured under conditions of 37° C. and 5% CO2 for 1 hr or 4 hr. Washing was repeated three times with 2 mL of 1×PBS. Washing was performed in a shaker at room temperature for 10 min while blocking the light. Thereafter, the cells were fixed by treatment with 4% paraformaldehyde at 4° C. for 10 min. Washing was repeated three times with 2 mL of 1×PBS. […]

The test system of data set [5] is GPC3-expressing hepatoma cells. In words: Cell-killing effect (CCK-8) of gemcitabine-bound combi aptamers. The settings on record: FIG. 23 and FIG. 24. On the procedure: In detail, Huh-7 cells (ATCC, Rockville, MD, USA) were seeded in a 96-well plate at a density of 1×10^4/mL, and cultured using a DMEM (Gibco, Grand Island, NY, USA) medium containing 10% FBS (Gibco, Grand Island, NY, USA) and 1% antibiotics (penicillin/streptomycin) under conditions of 5% CO2 and 37° C. Next day, the aptamer stock (100 μM) was mixed with 5×SB18 buffer to prepare the stock at a concentration of 80 μM, and heated at 95° C. for 5 min, and then cooled at room temperature for 15 min or more. The medium was removed from the cultured cells, and 100 μL of a serum-free medium was added thereto, and cultured under conditions of 37° C. and 5% CO2 for 1 hr. The serum-free medium was removed, and then the cells were washed with 100 μL of 1×PBS. 100 μL of KRPH buffer was added, and cultured under conditions of 37° C. and 5% CO2 for 1 hr. The aptamer was diluted with KRPH buffer to 2-fold of the desired concentration, and added to a 96-well plate at 1× concentration, and cultured under conditions of 37° C. and 5% CO2 for 4 hr. After treatment with the aptamer, the KRPH buffer was removed, and then 100 μL of culture medium was added and cultured under conditions of 37° C. and 5% CO2 for […]. 6 days later, 10 μL of a kit solution of CCK-8 (Cell Counting Kit-8) was added to each well, and then cultured under conditions of 37° C. and 5% CO2 for 3 hr. Cell death levels were examined at […] using a microplate reader.

In data set [6] the test system is hepatoma cells (Hep3B, HepG2). Nature of the data set: Cell cycle analysis (propidium iodide, FACS). The settings on record: 4 hr treatment, FIGS. 25 and 26. On the procedure:
(§1) To analyze the effects of combi 4 and combi 5 bound with three or five gemcitabines on the cell cycle of hepatoma cells, cell cycle analysis was performed. In detail, Hep3B, HepG2, and A431 cells were seeded in a 6-well plate at a density of 1×10^6/ml, and cultured using a DMEM medium containing 10% FBS and 1% antibiotics (penicillin/streptomycin) under conditions of 5% CO2 and 37° C., respectively. Next day, 100 μM of the modified aptamer stock was mixed with 5×SB18 buffer to prepare the aptamer at a concentration of 80 μM, and heated at 95° C. for 5 min, and then cooled at room temperature for 15 min or more. The medium was removed from the cultured cells, and replaced by a serum-free medium, and cultured under conditions of 37° C. and 5% CO2 for 1 hr. The serum-free medium was removed, and then the cells were washed with 2 ml of 1×PBS. 2 ml of KRPH buffer was added, and cultured under conditions of 37° C. and 5% CO2 for 1 hr. The aptamer was added, and cultured under conditions of 37° C. and 5% CO2 for 4 hr. The KRPH buffer was removed, and 2 ml of 1×PBS was added thereto to perform washing, and then PBS was removed. 2 ml of 1×PBS was added, and cells were scraped using a scraper, and collected in FACs tubes, followed by centrifugation at 4° C. and 2000 rpm for 4 minutes. 1/500-fold diluted RNAase A and propidium iodide diluted with PBS at a concentration of 50 μg/ml were added to the FACs tubes at a volume of 500 μL, followed by pipetting. Incubation was performed at room temperature for 30 min while blocking the light, and then cell cycle was measured.

Data set [7] deals with squamous cell carcinoma cells (A431). In words: Cell cycle analysis (propidium iodide, FACS). Particulars: 4 hr treatment, FIG. 27. On the procedure: as §1

The results in this text go back to US12668803B2, “Glypican-3-specific modified aptamer and use thereof” (APTAMER SCIENCES INC., priority 2019, dated 2026).

For the substance “Combi 5: SEQ ID NO: 14, chemically optimized 12-12 aptamer (G_{Me}nG_{Me}A_{F}A_{F}nGCGnnG_{F}A_{F}A_{Me}nnA_{Me}nWYC_{F}C_{F}C_{F}nnCAG_{Me}nCAnC_{F}A_{Me}C_{F}; 2'-F and 2'-OMe units, modified bases n, W, Y undefined, 3' idT, as printed in the source, key not given here)”, the HepG2 cell binding result in data set [1] is listed as “most similar to that of 12-12”. The Hep3B cellular internalization entry in data set [2] is “highest”.
In the case of “Combi 4 G(3) (DNA GNGAANGCGNNGAANNANGYSSSNNCAGNCANCAC; gemcitabines, 2'-OMe, 2'-F, BzdU, 3' idT; Combi 4 G(3); (1)..(1) G is 2-O-Methoxy-DNA.; (2)..(2) n is BzdU.; (3)..(3) G is 2-O-Methoxy-DNA.; (4)..(4) A is 2-Fluorine-DNA.; (5)..(5) A is 2-Fluorine-DNA.; (6)..(6) n is BzdU.; (10)..(10) n is BzdU.; (11)..(11) n is BzdU.; (12)..(12) G is 2-Fluorine-DNA.; (13)..(13) A is 2-Fluorine-DNA.; (14)..(14) A is 2-Fluorine-DNA.; (15)..(15) n is BzdU.; (16)..(16) n is BzdU.; (17)..(17) A is 2-Fluorine-)”, the cell binding ability entry in data set [3] is on record as “excellent cell binding ability”. For the same substance, in data set [4], the cellular internalization result was “excellent cellular internalization”. Also, in data set [5], the “concentration from which a cell-killing effect is shown” value amounted to 100 nM. Further, the results for the cell cycle arrest result in data set [6] and in data set [7] were “arrested hepatoma cells at the G1/S phase” and “no cell cycle arrest”, respectively.
